From the supplement of paper PMC10307832

How the values were obtained:
Test in all cases: relative viability (nuclei count vs DMSO), 5 days (fraction); higher = more cells survive
Bicalutamide = compound: CC(O)(CS(=O)(=O)c1ccc(F)cc1)C(=O)Nc1ccc(C#N)c(C(F)(F)F)c1 [Bicalutamide]
Outline: (§1)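 Vehicle-anchored 1536-well plates of lung cancer cell lines, held overnight at 37 °C, were pinned with five library-drug doses (not always all listed) spaced by √10. No medium change followed over the next 5 days, after which the cells were fixed, permeabilised and Hoechst-stained together and imaged at 4×. Nuclei were counted with MetaXpress, and viability is treated-well nuclei over vehicle-well nuclei, taken as a median across plates. Plates passed with control CV below 25% and at least one doubling.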

Bromopyruvate = compound: C(C(=O)C(=O)O)Br [Bromopyruvate]
Outline: as §1

[1] = compound: CC(O)(CS(=O)(=O)c1ccc(F)cc1)C(=O)Nc1ccc(C#N)c(C(F)(F)F)c1 [Bicalutamide] + Nc1nc2[nH]cc(CCc3ccc(C(=O)N[C@@H](CCC(=O)O)C(=O)O)cc3)c2c(=O)[nH]1 [Pemetrexed] (partner 0.2 µM)
Outline: (§2)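 One day after seeding in 1536-well plates, lung cancer cell lines were dosed by pin tool. Dosing was either single-drug or a fixed anchor-drug dose plus five library-drug doses (not always all listed) in √10 steps. After 5 days, nuclei were stained in one fix-and-stain step and counted on 4× images, and relative viability is the nuclei count of treated wells over that of vehicle wells, given as the median of duplicate plates.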

Bromopyruvate + OSI-027 = compound: C(C(=O)C(=O)O)Br [Bromopyruvate] + COc1cccc2cc(-c3nc([C@H]4CC[C@H](C(=O)O)CC4)n4ncnc(N)c34)[nH]c12 [OSI-027] (partner 0.5 µM)
Outline: as §2

Row | Cell Line | relative viability (Bicalutamide; 0.08 µM) | relative viability (Bicalutamide; 0.253 µM) | relative viability (Bicalutamide; 0.8 µM) | relative viability (Bicalutamide; 2.53 µM) | relative viability (Bromopyruvate; 1 µM) | relative viability (Bromopyruvate; 3.162 µM) | relative viability (Bromopyruvate; 10 µM) | relative viability (Bromopyruvate; 31.62 µM) | relative viability (Bromopyruvate; 100 µM) | relative viability ([1]; first compound 0.08 µM) | relative viability ([1]; first compound 0.253 µM) | relative viability ([1]; first compound 0.8 µM) | relative viability ([1]; first compound 2.53 µM) | relative viability (Bromopyruvate + OSI-027; first compound 1 µM) | relative viability (Bromopyruvate + OSI-027; first compound 3.162 µM) | relative viability (Bromopyruvate + OSI-027; first compound 10 µM) | relative viability (Bromopyruvate + OSI-027; first compound 31.62 µM) | relative viability (Bromopyruvate + OSI-027; first compound 100 µM)
1 | HCC-366 | 1.01 | 0.95 | 1.06 | 1.01 | 0.996 | 0.979 | 1.05 | 1.02 | 0.998 | 0.16 | 0.189 | 0.191 | 0.163 | 0.836 | 1.05 | 0.812 | 0.979 | 1.01
2 | HCC-827 | 1.08 | 0.842 | 1.07 | 1.03 | 1.04 | 1.02 | 0.988 | 1.06 | 1.07 | 0.261 | 0.218 | 0.289 | 0.306 | 0.779 | 0.799 | 0.803 | 0.778 | 0.805
3 | HOP-62 | 1.12 | 0.988 | 1.06 | 1.03 | 1.06 | 0.981 | 0.936 | 1.03 | 1.03 | 0.371 | 0.289 | 0.277 | 0.327 | 0.799 | 0.743 | 1.02 | 0.803 | 0.891
4 | IA-LM | 1.02 | 0.936 | 1.18 | 0.95 | 1.03 | 0.96 | 0.983 | 0.884 | 0.924 |  |  |  |  |  |  |  |  | 
5 | LC-2-ad | 1.09 | 0.935 | 1.08 | 0.986 | 1.01 | 0.985 | 1.03 | 0.924 | 0.964 | 0.268 | 0.256 | 0.275 | 0.267 | 0.839 | 0.867 | 0.9 | 0.837 | 0.633
6 | LCLC-97TM1 | 1.04 | 0.974 | 1.29 | 0.862 | 1.02 | 1.06 | 1 | 0.974 | 0.859 | 0.169 | 0.173 | 0.203 | 0.181 | 0.53 | 0.482 | 0.735 | 0.522 | 0.51
7 | LCLC-103H | 0.986 | 0.971 | 1.08 | 0.918 | 0.953 | 0.992 | 1.11 | 0.994 | 0.976 | 0.446 | 0.408 | 0.469 | 0.462 | 0.408 | 0.487 | 0.528 | 0.451 | 0.494
8 | LK-2 | 0.961 | 0.825 | 1.31 | 1.02 | 0.98 | 1.02 | 1.11 | 0.936 | 0.832 | 0.233 | 0.273 | 0.379 | 0.303 | 0.235 | 0.2 | 0.21 | 0.223 | 0.218
9 | LOU-NH91 | 1.09 | 0.765 | 1.05 | 1.04 | 1.09 | 1.01 | 0.973 | 0.984 | 1.01 | 0.429 | 0.379 | 0.39 | 0.378 | 0.804 | 0.716 | 0.747 | 0.694 | 0.756
10 | LU99A | 0.926 | 0.885 | 1.22 | 0.755 | 0.852 | 0.913 | 0.977 | 0.967 | 1.03 | 0.19 | 0.163 | 0.206 | 0.183 | 0.288 | 0.27 | 0.386 | 0.278 | 0.317
11 | LXF-289 | 0.998 | 0.958 | 0.984 | 0.979 | 1.03 | 1.01 | 1.04 | 1.03 | 1.02 | 0.929 | 0.815 | 0.916 | 0.949 | 0.809 | 0.851 | 0.8 | 0.847 | 0.914
12 | NCI-H23 | 1.02 | 0.9 | 1.08 | 0.812 | 1.01 | 1.19 | 0.979 | 0.909 | 0.931 | 0.52 | 0.528 | 0.854 | 0.578 | 0.605 | 0.695 | 0.612 | 0.71 | 0.661
13 | NCI-H322M | 0.969 | 0.941 | 1.05 | 1.06 | 0.93 | 0.956 | 0.865 | 0.94 | 1.04 | 0.594 | 0.553 | 0.635 | 0.709 | 0.515 | 0.58 | 0.576 | 0.523 | 0.599
14 | NCI-H358 | 0.988 | 0.865 | 1.13 | 1.06 | 1.03 | 1.02 | 0.939 | 0.909 | 0.929 | 0.174 | 0.17 | 0.218 | 0.176 | 0.813 | 0.758 | 0.956 | 0.769 | 0.797
15 | NCI-H441 | 1.13 | 0.803 | 1.45 | 0.976 | 0.949 | 1.18 | 1.17 | 0.914 | 0.679 | 0.311 | 0.281 | 0.284 | 0.272 | 0.709 | 0.693 | 0.76 | 0.609 | 0.571
16 | NCI-H460 | 0.974 | 0.952 | 1.07 | 0.988 | 0.99 | 0.972 | 1.13 | 1 | 1.01 | 0.0574 | 0.0589 | 0.0592 | 0.0687 | 0.588 | 0.82 | 0.91 | 0.661 | 0.728
17 | NCI-H727 | 1.02 | 0.807 | 1.13 | 1.05 | 0.959 | 1.19 | 1.09 | 1.08 | 1.03 |  |  |  |  | 0.644 | 0.624 | 0.682 | 0.55 | 0.638
18 | NCI-H1299 | 1.01 | 1.04 | 1.05 | 1 | 1.01 | 1 | 1.04 | 0.968 | 0.983 |  |  |  |  |  |  |  |  | 
19 | NCI-H1623 | 0.628 | 0.89 | 0.969 | 0.904 | 1.07 | 0.944 | 1.25 | 0.973 | 0.948 |  |  |  |  | 0.495 | 0.428 | 0.46 | 0.383 | 0.399
20 | NCI-H1703 | 0.941 | 1.01 | 0.983 | 0.738 | 0.914 | 0.981 | 0.955 | 0.94 | 0.778 |  |  |  |  |  |  |  |  | 
